Test results: patent publication US6867207B2, “IL-5 inhibiting 6-azauracil derivatives” (Janssen Pharmaceutica N.V., priority 1997, dated 2005)
Marks after values point to notes of the source that are not given here.

system: IL-5 production; experiment: In vitro inhibition of IL-5 production in human blood (phytohemagglutinin-stimulated whole blood, ELISA); assay type: cell-based; settings: test dose 1×10^−5 M (values marked *), 48 hours
In short: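 Percent inhibition of IL-5, quantified by ELISA in cell-free supernatants, is given at a single dose of 1×10^−6 M (or 1×10^−5 M). Threefold-diluted human whole blood from healthy men received compound for 60 min at 37° C before 48 h PHA stimulation at 2 μg/mL.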

For `O=c1cnn(-c2ccc(C(Sc3nc4ccccc4[nH]3)c3ccc(Cl)cc3)c(Cl)c2)c(=O)[nH]1` (racemic) [Compound 52], the “% inh. (percentage inhibition of IL-5 production), marked with *” value was 57* %.

same assay, conditions: test dose 1×10^−5 M (values marked *), 48 hours, read-out: % inh. (percentage inhibition of IL-5 production), marked with *

`O=c1cnn(-c2ccc(C(NCc3ncc[nH]3)c3ccc(Cl)cc3)c(Cl)c2)c(=O)[nH]1` (racemic) [Compound 50, (±)-2-[3-chloro-4-[(4-chlorophenyl)[(1H-imidazol-2-ylmethyl)amino]methyl]phenyl]-1,2,4-triazine-3,5(2H,4H)-dione] gave an inhibition at 10 µM of 20%.

same assay, conditions: test dose 1×10^−6 M, 48 hours

Compared with `CN(C)c1ccnc(SC(c2ccc(Cl)cc2)c2c(Cl)cc(-n3ncc(=O)[nH]c3=O)cc2Cl)n1` (racemic) [Compound 355], `CN1CCN(c2ccnc(SC(c3ccc(Cl)cc3)c3c(Cl)cc(-n4ncc(=O)[nH]c4=O)cc3Cl)n2)CC1` (racemic) [Compound 345] is higher in “% inh. (percentage inhibition of IL-5 production)” value: 83% for the first, 88% for the second.

Compared with `[N-]=[N+]=Nc1ccc(-c2nnc(C(c3ccc(Cl)cc3)c3c(Cl)cc(-n4ncc(=O)[nH]c4=O)cc3Cl)o2)cc1` (racemic) [Compound 185], `O=c1cnn(-c2cc(Cl)c(C(c3ccc(Cl)cc3)c3nnc(-c4ccccc4)o3)c(Cl)c2)c(=O)[nH]1` (centres unmarked) [Compound 190, (B)-2-[3,5-dichloro-4-[(4-chlorophenyl)(5-phenyl-1,3,4-oxadizol-2-yl)methyl]phenyl]-1,2,4-triazine-3,5(2H,4H)-dione] is higher in “% inh. (percentage inhibition of IL-5 production)” value: 81% for the first, 83% for the second.

First: O=c1cnn(-c2ccc(C(c3ccc(Cl)cc3)c3nc4sccn4c3-c3ccccc3)c(Cl)c2)c(=O)[nH]1 (centres unmarked) [Comp 432]
Second: O=c1cnn(-c2ccc(C(c3ccc(Cl)cc3)c3cnc(-c4ccccc4)s3)c(Cl)c2)c(=O)[nH]1 (racemic) [Compound 141]
The “% inh. (percentage inhibition of IL-5 production)” value of the first is higher: 82% for the first, 64% for the second.

First: CCOC(=O)c1cnc(SC(c2ccc(Cl)cc2)c2ccc(-n3ncc(=O)[nH]c3=O)cc2Cl)nc1O (racemic) [Compound 339]
Second: O=c1cnn(-c2ccc(C(Sc3nc[nH]n3)c3ccc(Cl)cc3)c(Cl)c2)c(=O)[nH]1 (racemic) [Compound 55]
The “% inh. (percentage inhibition of IL-5 production)” value of the first is higher: 35% for the first, 26% for the second.

First: O=c1cnn(-c2ccc(C(Sc3cccc[n+]3[O-])c3ccc(Cl)cc3)c(Cl)c2)c(=O)[nH]1 (racemic) [Compound 73]
Second: Cc1nnc(SC(c2ccc(Cl)cc2)c2ccc(-n3ncc(=O)[nH]c3=O)cc2Cl)[nH]c1=O (centres unmarked) [Compound 85]
The “% inh. (percentage inhibition of IL-5 production)” value of the first is lower: 21% for the first, 38% for the second.

First: CC(c1ccc(Cl)cc1)(c1nc(-c2ccccc2)no1)c1ccc(-n2ncc(=O)[nH]c2=O)cc1Cl (racemic) [Comp 106]
Second: CC(c1ccc(Cl)c(C(F)(F)F)c1)(c1nc(-c2ccccc2)cs1)c1ccc(-n2ncc(=O)[nH]c2=O)cc1Cl (racemic) [Comp 239]
The “% inh. (percentage inhibition of IL-5 production)” value of the first is higher: 77% for the first, 72% for the second.

Going from `O=c1cnn(-c2cc(Cl)c(C(Sc3nc(-c4cccs4)cs3)c3ccc(Cl)c(C(F)(F)F)c3)c(Cl)c2)c(=O)[nH]1` (centres unmarked) [Compound 390] to `O=c1cnn(-c2cc(Cl)c(C(Sc3nc4ccccc4o3)c3ccc(Cl)c(C(F)(F)F)c3)c(Cl)c2)c(=O)[nH]1` (centres unmarked) [Compound 379], the “% inh. (percentage inhibition of IL-5 production)” value rises from 89% to 95%.

First: Cc1sc(SC(c2ccc(Cl)c(C(F)(F)F)c2)c2c(Cl)cc(-n3ncc(=O)[nH]c3=O)cc2Cl)nc1-c1ccccc1 (centres unmarked) [Compound 392]
Second: O=c1cnn(-c2cc(Cl)c(C(c3ccc(Cl)c(C(F)(F)F)c3)c3nc(-c4ccccc4)cs3)c(Cl)c2)c(=O)[nH]1 (racemic) [Comp 226]
The “% inh. (percentage inhibition of IL-5 production)” value of the first is lower: 87% for the first, 93% for the second.

Compared with `CC(c1ccc(Cl)c(Cl)c1)(c1nc(-c2ccccc2)c(-c2ccccc2)s1)c1c(Cl)cc(-n2ncc(=O)[nH]c2=O)cc1Cl` (racemic) [Comp 228], `CCc1sc(C(C)(c2ccc(Cl)c(Cl)c2)c2c(Cl)cc(-n3ncc(=O)[nH]c3=O)cc2Cl)nc1-c1ccccc1` (racemic) [Comp 251] is higher in “% inh. (percentage inhibition of IL-5 production)” value: 81% for the first, 90% for the second.

Compared with `Cc1nc(-c2ccccc2F)c(C(c2ccc(Cl)cc2)c2c(Cl)cc(-n3ncc(=O)[nH]c3=O)cc2Cl)s1` (racemic) [Compound 152], `CCc1sc(C(c2ccc(Cl)cc2)c2c(Cl)cc(-n3ncc(=O)[nH]c3=O)cc2Cl)nc1-c1ccccc1F` (racemic) [Comp 261] is higher in “% inh. (percentage inhibition of IL-5 production)” value: 87% for the first, 93% for the second.

Going from `Cc1cccc(-c2nc(C(c3ccc(Cl)cc3)c3c(Cl)cc(-n4ncc(=O)[nH]c4=O)cc3Cl)cs2)c1` (racemic) [Compound 372] to `CCc1sc(C(c2ccc(Cl)cc2)c2c(Cl)cc(-n3ncc(=O)[nH]c3=O)cc2Cl)nc1-c1cccc(F)c1` (racemic) [Comp 260], the “% inh. (percentage inhibition of IL-5 production)” value rises from 86% to 98%.

Compared with `O=c1cnn(-c2cc(Cl)c(C(c3ccc(Cl)cc3)c3nnc(-c4cccnc4)o3)c(Cl)c2)c(=O)[nH]1` (racemic) [Compound 201], `O=c1cnn(-c2cc(Cl)c(C(c3ccc(Cl)cc3)c3nnc(-c4cccc(O)c4)o3)c(Cl)c2)c(=O)[nH]1` (racemic) [Compound 200] is lower in “% inh. (percentage inhibition of IL-5 production)” value: 87% for the first, 43% for the second.

First: Cc1oc(C(c2ccc(Cl)cc2)c2c(Cl)cc(-n3ncc(=O)[nH]c3=O)cc2Cl)nc1-c1ccc(F)cc1 (centres unmarked) [Comp 431]
Second: O=c1cnn(-c2cc(Cl)c(C(c3ccc(Cl)cc3)c3nc(-c4cc(F)cc(F)c4)cs3)c(Cl)c2)c(=O)[nH]1 (racemic) [Comp 286]
The “% inh. (percentage inhibition of IL-5 production)” value of the first is lower: 67% for the first, 86% for the second.

Compared with `O=c1cnn(-c2cc(Cl)c(C(c3ccc(Cl)cc3)c3ncc(-c4ccccc4)s3)c(Cl)c2)c(=O)[nH]1` (racemic) [Comp 267], `O=c1cnn(-c2cc(Cl)c(C(Sc3nc(-c4ccccc4)cs3)c3ccc(Cl)cc3)c(Cl)c2)c(=O)[nH]1` (centres unmarked) [Compound 380] is higher in “% inh. (percentage inhibition of IL-5 production)” value: 81% for the first, 95% for the second.

Going from `O=c1cnn(-c2cc(Cl)c(C(Sc3cnccn3)c3ccc(Cl)c(C(F)(F)F)c3)c(Cl)c2)c(=O)[nH]1` (racemic) [Compound 401] to `O=c1cnn(-c2cc(Cl)c(C(Nc3nc(-c4ccccc4)cs3)c3ccc(Cl)c(C(F)(F)F)c3)c(Cl)c2)c(=O)[nH]1` (racemic) [Compound 411], the “% inh. (percentage inhibition of IL-5 production)” value rises from 92% to 94%.

First: CN1CCC(NC(c2ccc(Cl)cc2)c2ccc(-n3ncc(=O)[nH]c3=O)cc2Cl)CC1 (racemic) [Compound 48, (±)-2-[3-chloro-4-[(4-chlorophenyl)[(1-methyl)-4-piperidinyl)amino]methyl]phenyl]-1,2,4-triazine-3,5(2H,4H)-dione]
Second: O=c1cnn(-c2ccc(C(SC3CCCCC3)c3ccc(Cl)cc3)c(Cl)c2)c(=O)[nH]1 (centres unmarked) [Compound 90]
The “% inh. (percentage inhibition of IL-5 production)” value of the first is lower: 29% for the first, 60% for the second.

Compared with `O=C(c1sc(C(c2ccc(Cl)cc2)c2c(Cl)cc(-n3ncc(=O)[nH]c3=O)cc2Cl)nc1-c1ccccc1)N1CCOCC1` (racemic) [Comp 306], `CNC(=O)Cc1sc(C(c2ccc(Cl)cc2)c2c(Cl)cc(-n3ncc(=O)[nH]c3=O)cc2Cl)nc1-c1ccccc1` (racemic) [Comp 301] is lower in “% inh. (percentage inhibition of IL-5 production)” value: 92% for the first, 33% for the second.

Going from `O=c1cnn(-c2ccc(C(c3ccc(Cl)cc3)c3scnc3-c3cccc(F)c3)c(Cl)c2)c(=O)[nH]1` (racemic) [Compound 148] to `O=c1cnn(-c2ccc(C(c3ccc(Cl)cc3)c3sc(-c4ccccc4Cl)nc3-c3ccccc3Cl)c(Cl)c2)c(=O)[nH]1` (racemic) [Compound 151], the “% inh. (percentage inhibition of IL-5 production)” value falls from 79% to 17%.

Going from `O=c1cnn(-c2cc(Cl)c(C(CSc3ccccn3)c3ccc(Cl)cc3)c(Cl)c2)c(=O)[nH]1` (racemic) [Compound 422, (±)-2-[3,5-dichloro[1-(4-chlorophenyl)-2-(2-pyridinylthio)ethyl]phenyl-1,2,4-triazine-3,5(2H,4H)-dione] to `O=c1cnn(-c2cc(Cl)c(C(c3ccc(Cl)cc3)c3nc(-c4ccco4)cs3)c(Cl)c2)c(=O)[nH]1` (racemic) [Comp 236], the “% inh. (percentage inhibition of IL-5 production)” value rises from 87% to 92%.

Going from `O=c1cnn(-c2ccc(C(Sc3nnc(C(F)(F)F)[nH]3)c3ccc(Cl)cc3)c(Cl)c2)c(=O)[nH]1` (centres unmarked) [Compound 89] to `Cc1cc(NC(c2ccc(Cl)cc2)c2ccc(-n3ncc(=O)[nH]c3=O)cc2Cl)no1` (racemic) [Compound 40], the “% inh. (percentage inhibition of IL-5 production)” value rises from 19% to 31%.

With `CN(C)Cc1nnc(C(c2ccc(Cl)cc2)c2c(Cl)cc(-n3ncc(=O)[nH]c3=O)cc2Cl)o1` (racemic) [Compound 198] the “% inh. (percentage inhibition of IL-5 production)” value was 46%.

same assay, conditions: test dose 1×10^−6 M, 48 hours, read-out: % inh. (percentage inhibition of IL-5 production)

Going from `O=c1cnn(-c2ccc(C(Sc3ccccn3)c3ccc(Cl)cc3)c(Cl)c2)c(=O)[nH]1` (racemic) [Compound 93, (±)-2-[3-chloro-4-[(4-chlorophenyl)(2-pyridinyl-thio)methyl]phenyl]-1,2,4-triazine-3,5(2H,4H)-dione] to `O=c1cnn(-c2cc(Cl)c(C(Sc3nnc(-c4ccccc4)o3)c3ccc(Cl)cc3)c(Cl)c2)c(=O)[nH]1` (racemic) [Compound 406, (±)-2-[3,5-dichloro-4-[(4-chlorophenyl)[(5-phenyl-1,3,4-oxadiazol-2-yl)thio]methyl]phenyl]-1,2,4-triazine-3,5(2H,4H)-dione], the inhibition at 1 µM falls from 86% to 84%.

First: CC(c1ccc(Cl)cc1)(c1nc2ccccc2o1)c1ccc(-n2ncc(=O)[nH]c2=O)cc1Cl (racemic) [Compound 132, (±)-2-[3-chloro-4-[1-(4-chlorophenyl)-1-(2-benzoxazolyl)ethyl]phenyl]-1,2,4-triazine-3,5(2H,4H)-dione]
Second: O=c1cnn(-c2cc(Cl)c(C(c3ccc(Cl)cc3)c3nc(-c4ccccc4)cs3)c(Cl)c2)c(=O)[nH]1 (racemic) [Compound 38, (±)-2-[3,5-dichloro-4-[(4-chlorophenyl)(4-phenyl-2-thiazolyl)methyl]phenyl]-1,2,4-triazine-3,5(2H,4H)-dione]
The inhibition at 1 µM of the first is lower: 55% for the first, 92% for the second.
